Positions of bridges follow the written chain, without caps; N, C: chain ends. Non-standard residues stand in square brackets, D forms with d. Residues, ends and D or L forms follow the SMILES beside them. *: point of attachment. 5FAM = O=C1OC2(c3ccc(O)cc3Oc3cc(O)ccc32)c2ccc(C(=O)*)cc21; βAla = NCCC(=O)O
Legend:
[1] = system: TmrAB; experiment: ATP binding by scintillation proximity assay (SPA); parameters: species or system Thermus thermophilus; details: CP^B 1 µM; for Effect on ATP binding to TmrAB: SPA; for Signal, ATP binding: TmrAB 0.2 µM on SPA beads, ATP 3 µM traced with 3H-ATP, 30 min on ice, without CP 5.06; for Signal, Background: after release of TmrAB from beads with imidazole 200 mM
From the text: To elucidate the mechanistic basis for the inhibition of ATP hydrolysis and substrate transport, we investigated the effects of CPs on substrate binding. In the first approach, fluorescent CP^Fs were used as reporters in fluorescence polarization. […] In addition, we examined the impact of CP^Bs on ATP binding to TmrAB by scintillation proximity assays (SPA) (Figure 4C). […] Taken together, CPs are high-affinity allosteric inhibitors of TmrAB that leave ATP binding and substrate interaction largely unaffected, while impairing ATP hydrolysis and substrate translocation across the membrane.
Figure 4. […] (A) CP^Fs binding TmrAB is not affected by substrate peptide binding. […] For competition, C4^ATTO655 peptide (2 µM) or R9LQK peptide (200 µM) were added. (B) Binding of C4F peptide is not affected by CP^Bs. C4F peptides (50 nM) were mixed with TmrAB (4 µM), and fluorescence anisotropy was monitored as described in (A). For competition, C4^ATTO655 (10 µM) or CP^Bs (6 µM) were added. […] TmrAB (0.2 µM) were immobilized on SPA beads and incubated with ATP (3 μM, traced with ^3H-ATP) in the presence and absence of CP^Bs (1 µM each) for 30 min on ice. ATP binding was monitored by SPA. Background values were determined after releasing TmrAB complexes from the beads by adding imidazole (200 mM). The background signal in the absence of CP^Bs was set to 0 cpm. […] As this is an equilibrium experiment, this can be rationalized by the fact that CP13 stabilizes the ATP-bound OF conformer. Figure 4—source data 1. Source data for Figure 4.
DDM-solubilized TmrAB (0.2 µM) was incubated with ATP (2.8 μM), [2,5’,8-^3H(N)]-ATP (0.2 µM, ^3H-ATP, PerkinElmer), MgCl2 (3 mM), and CP^Bs (1 µM) for 30 min on ice. Copper-chelated SPA beads (PerkinElmer) were added to a final concentration of 5 mg/ml. Total binding was determined at 20°C in cpm mode (Wallac MicroBeta). Bound TmrAB complexes were eluted by adding 200 mM of imidazole, and background binding was determined. Data represent mean ± SD from three experiments.

[2] = Fluorescence anisotropy with empty liposomes (specificity control); format: binding; details: CP^F 50 nM
Procedure: (§1) In order to analyze the binding affinity and specificity of CPs to TmrAB, we established a fluorescence polarization assay. Fluorescein-labeled CP^Fs were incubated with increasing concentrations of TmrAB reconstituted in liposomes at a protein-to-lipid ratio of 1:20 (w/w). […] To address whether the CPs recognize a linear or non-linear epitope, we examined the binding of CP^Fs after disrupting the quaternary and tertiary structure of TmrAB complexes by adding anionic detergent SDS.
Figure 2. […] (A, B) Equilibrium binding analysis. Fluorescence anisotropy of CP^Fs (50 nM) was determined at λex/em = 485/520 nm with increasing concentrations of TmrAB which was reconstituted in liposomes. TmrAB concentrations were calculated based on the random (50/50%) orientation in proteoliposomes ([Stefan et al., 2020]). As a control, equal amounts of empty liposomes were added to CP^Fs (dashed lines, open symbols). The difference in fluorescence polarization was normalized to free (0%) and 100% bound CP^F. Mean values ± SD (n = 3) are shown, and data were analyzed by a one-site binding model. […] Streptavidin beads loaded with CP14^B (1 µM) were mixed with purified TmrAB (60 nM) for 1 hr at 4°C. Beads were washed and bound TmrAB was eluted by adding SDS loading buffer for 10 min at 95°C. Amounts of TmrA in input (I), flow-through (FT), wash fraction (W), and eluate (E) were analyzed by SDS-PAGE and immunoblotting (α-His). Beads without CP^B served as negative control (right panel). (D) One-step purification of TmrAB via immobilized CP14^B matrices. Streptavidin-agarose beads were loaded with CP14^B (1 µM) and mixed with DDM-solubilized membranes of E. coli containing TmrAB as described in (C). Bound TmrAB was eluted in SDS loading buffer and analyzed by SDS-PAGE (silver stain). (E) Native mass spectrometry. TmrAB (4 µM) was buffer exchanged to ESI buffer and incubated with a 2-fold molar excess of CP14^F for 10 min on ice. Protein complexes were investigated by ESI-TOF-mass spectrometry. […] Figure 2—source data 1. Source data for Figure 2. Figure 2—figure supplement 1. […] (A) CP^Bs-mediated isolation of solubilized TmrAB. Streptavidin matrices were loaded with CP^Bs (1 µM) and incubated with purified TmrAB (60 nM) for 1 hr at 4°C. Beads without CP^Bs served as control (see Figure 2C). Bound TmrAB complexes were eluted by the addition of SDS loading buffer for 10 min at 95°C. TmrAB in input (I), flow-through (FT), washing fraction (W), and eluate (E) was analyzed by SDS-PAGE and immunoblotting (α-His). […] Bound TmrAB complexes were eluted in SDS loading buffer and analyzed by SDS-PAGE (silver stain). […] CP^F-TmrAB complexes were analyzed by gel filtration. […] Fluorescence anisotropy was determined at λex/em = 485/520 nm. […]

[3] = system: TmrAB; experiment: Conformational epitope test, CP^F anisotropy with TmrAB and SDS; format: binding, Thermus thermophilus
Procedure: as §1
Figure 2. […] (A, B) Equilibrium binding analysis. Fluorescence anisotropy of CP^Fs (50 nM) was determined at λex/em = 485/520 nm with increasing concentrations of TmrAB which was reconstituted in liposomes. TmrAB concentrations were calculated based on the random (50/50%) orientation in proteoliposomes ([Stefan et al., 2020]). As a control, equal amounts of empty liposomes were added to CP^Fs (dashed lines, open symbols). The difference in fluorescence polarization was normalized to free (0%) and 100% bound CP^F. Mean values ± SD (n = 3) are shown, and data were analyzed by a one-site binding model. […] Streptavidin beads loaded with CP14^B (1 µM) were mixed with purified TmrAB (60 nM) for 1 hr at 4°C. Beads were washed and bound TmrAB was eluted by adding SDS loading buffer for 10 min at 95°C. Amounts of TmrA in input (I), flow-through (FT), wash fraction (W), and eluate (E) were analyzed by SDS-PAGE and immunoblotting (α-His). Beads without CP^B served as negative control (right panel). (D) One-step purification of TmrAB via immobilized CP14^B matrices. Streptavidin-agarose beads were loaded with CP14^B (1 µM) and mixed with DDM-solubilized membranes of E. coli containing TmrAB as described in (C). Bound TmrAB was eluted in SDS loading buffer and analyzed by SDS-PAGE (silver stain). (E) Native mass spectrometry. TmrAB (4 µM) was buffer exchanged to ESI buffer and incubated with a 2-fold molar excess of CP14^F for 10 min on ice. Protein complexes were investigated by ESI-TOF-mass spectrometry. […] Figure 2—source data 1. Source data for Figure 2. Figure 2—figure supplement 1. […] (A) CP^Bs-mediated isolation of solubilized TmrAB. Streptavidin matrices were loaded with CP^Bs (1 µM) and incubated with purified TmrAB (60 nM) for 1 hr at 4°C. Beads without CP^Bs served as control (see Figure 2C). Bound TmrAB complexes were eluted by the addition of SDS loading buffer for 10 min at 95°C. TmrAB in input (I), flow-through (FT), washing fraction (W), and eluate (E) was analyzed by SDS-PAGE and immunoblotting (α-His). (B) Isolation of TmrAB using CP13^B. Streptavidin matrices were loaded with CP13^B (1 µM) and mixed with DDM-solubilized membranes of E. coli expressing TmrAB as described in (A). Bound TmrAB complexes were eluted in SDS loading buffer and analyzed by SDS-PAGE (silver stain). (C) Formation of CP^F-TmrAB complexes. DDM-solubilized TmrAB (1 µM) was incubated with CP12^F, CP13^F, CP14^F (2 µM each), or CP6^F (5 µM) for 10 min on ice. CP^F-TmrAB complexes were analyzed by gel filtration. […] (D) Conformational epitopes. CP^Fs (50 nM) were incubated with TmrAB (0.6 µM for CP6^F and CP13^F, 0.7 µM for CP12^F, 0.5 µM for CP14^F) in the presence of 1% (v/v) SDS. Fluorescence anisotropy was determined at λex/em = 485/520 nm. […] Figure 2—figure supplement 1—source data 1. Source Data for Figure 2—figure supplement 1. [drawing 2] Figure 2—figure supplement 2. Analysis of CP^F-TmrAB complexes by native mass spectrometry.

[4] = listed as CPF: CP^F 50 nM alone
[5] = listed as SDS: CP^F 50 nM + TmrAB + 1% (v/v) SDS
[6] = listed as TmrAB: CP^F 50 nM + TmrAB (0.6 µM CP6^F/CP13^F, 0.7 µM CP12^F, 0.5 µM CP14^F)

In the case of `CC[C@H](C)[C@@H]1NC(=O)[C@H]([C@@H](C)O)NC(=O)[C@H](CC(C)C)NC(=O)[C@H](Cc2c[nH]c3ccccc23)NC(=O)[C@H](Cc2ccccc2)NC(=O)[C@H](CC(N)=O)NC(=O)[C@H](CCC(=O)O)NC(=O)[C@H](CC(C)C)NC(=O)[C@H](CS)NC(=O)[C@H](Cc2c[nH]cn2)NC(=O)[C@H](CO)NC(=O)[C@@H](Cc2ccc(O)cc2)NC(=O)CSC[C@@H](C(=O)NCC(=O)N[C@@H](CO)C(=O)NCCC(=O)NCCC(=O)N[C@@H](CCCNC(=N)N)C(=O)N[C@@H](CCCCNC(=O)c2ccc3c(c2)C(=O)OC32c3ccc(O)cc3Oc3cc(O)ccc32)C(N)=O)NC(=O)[C@H](CC(C)C)NC1=O` [CP6] ({CH2CO}-[dY]SHCLENFWLTILCGS[βAla][βAla]RK(5FAM)-NH2; thioether N-14), the “Effect on ATP binding to TmrAB” value [1] is reported as “only minor effects on ATP binding”, the “Signal, ATP binding” value [1] is reported as 4.22 cpm*10^3 and the “Signal, Background” value [1] is reported as -0.04 cpm*10^3. The “Bound CP^F” value ([2]; amount equal to 0.5000 µM) was -6.19%, the Fluorescence anisotropy [3, 4] was 0.0222 and the Fluorescence anisotropy [3, 5] was 0.0146. It also gave a Fluorescence anisotropy [3, 6] of 0.1093.
In the case of `CC(C)[C@@H]1NC(=O)[C@H](Cc2ccccc2)NC(=O)[C@@H]2CCCN2C(=O)[C@H](CC(N)=O)NC(=O)[C@H](Cc2c[nH]c3ccccc23)NC(=O)[C@H](C(C)C)NC(=O)[C@H](Cc2ccc(O)cc2)NC(=O)[C@H](Cc2ccccc2)NC(=O)[C@@H](Cc2ccc(O)cc2)NC(=O)CSC[C@@H](C(=O)NCC(=O)N[C@@H](CO)C(=O)NCCC(=O)NCCC(=O)N[C@@H](CCCNC(=N)N)C(=O)N[C@@H](CCCCNC(=O)c2ccc3c(c2)C(=O)OC32c3ccc(O)cc3Oc3cc(O)ccc32)C(N)=O)NC(=O)[C@H](CCCCN)NC(=O)[C@H](Cc2ccccc2)NC1=O` [CP14] ({CH2CO}-[dY]FYVWNPFVFKCGS[βAla][βAla]RK(5FAM)-NH2; thioether N-12; C-terminus assumed), the “Effect on ATP binding to TmrAB” value [1] is reported as “no effect on ATP binding”, the “Signal, ATP binding” value [1] is reported as 5.10 cpm*10^3 and the “Signal, Background” value [1] is reported as 0.08 cpm*10^3. The “Bound CP^F” value ([2]; amount equal to 0.2500 µM) was -5.24%, the Fluorescence anisotropy [3, 4] was 0.0267 and the Fluorescence anisotropy [3, 5] was 0.0311. It also gave a Fluorescence anisotropy [3, 6] of 0.1410.
For `CC(C)C[C@@H]1NC(=O)[C@H](Cc2ccccc2)NC(=O)CNC(=O)[C@H](CO)NC(=O)[C@H](Cc2ccccc2)NC(=O)[C@H](CC(=O)O)NC(=O)[C@@H]2CCCN2C(=O)[C@H]([C@@H](C)O)NC(=O)[C@@H](Cc2ccc(O)cc2)NC(=O)CSC[C@@H](C(=O)NCC(=O)N[C@@H](CO)C(=O)NCCC(=O)NCCC(=O)N[C@@H](CCCNC(=N)N)C(=O)N[C@@H](CCCCNC(=O)c2ccc3c(c2)C(=O)OC32c3ccc(O)cc3Oc3cc(O)ccc32)C(N)=O)NC(=O)[C@H](C)NC(=O)[C@H](CC(N)=O)NC(=O)[C@H](CCCNC(=N)N)NC(=O)[C@H](CC(C)C)NC(=O)[C@H](Cc2ccccc2)NC(=O)[C@H](C)NC1=O` [CP12] ({CH2CO}-[dY]TPDFSGFLAFLRNACGS[βAla][βAla]RK(5FAM)-NH2; thioether N-16), the “Effect on ATP binding to TmrAB” value [1] was “no effect on ATP binding”, the “Signal, ATP binding” value [1] was 5.02 cpm*10^3 and the “Signal, Background” value [1] was 0.08 cpm*10^3. The “Bound CP^F” value ([2]; amount equal to 0.5000 µM) was -0.19%, the Fluorescence anisotropy [3, 4] was 0.0250 and the Fluorescence anisotropy [3, 5] was 0.0265. For the same compound, the Fluorescence anisotropy [3, 6] was 0.1604.
With `CC[C@H](C)[C@@H]1NC(=O)[C@H](Cc2c[nH]c3ccccc23)NC(=O)[C@H](CC(N)=O)NC(=O)[C@H](C)NC(=O)[C@H](CO)NC(=O)[C@@H]2CCCN2C(=O)[C@H](CC(=O)O)NC(=O)[C@@H](Cc2ccc(O)cc2)NC(=O)CSC[C@@H](C(=O)NCC(=O)N[C@@H](CO)C(=O)NCCC(=O)NCCC(=O)N[C@@H](CCCNC(=N)N)C(=O)N[C@@H](CCCCNC(=O)c2ccc3c(c2)C(=O)OC32c3ccc(O)cc3Oc3cc(O)ccc32)C(N)=O)NC(=O)[C@H]([C@@H](C)O)NC(=O)[C@H](CC(C)C)NC(=O)[C@H](CC(C)C)NC(=O)[C@H](C(C)C)NC(=O)[C@H](CC(C)C)NC1=O` [CP13] ({CH2CO}-[dY]DPSANWILVLLTCGS[βAla][βAla]RK(5FAM)-NH2; thioether N-14; C-terminus assumed) the “Effect on ATP binding to TmrAB” value [1] was “value of bound ATP exceeds the control without CPs”, the “Effect on ATP binding to TmrAB” value ([1]; listed as CP13^B) was “only minor effects on ATP binding” and the “Signal, ATP binding” value [1] was 6.33 cpm*10^3. For the same compound, the “Signal, Background” value [1] was 0.19 cpm*10^3, the “Bound CP^F” value ([2]; amount equal to 0.2500 µM) was 3.65% and the Fluorescence anisotropy [3, 4] was 0.0252. It also gave a Fluorescence anisotropy [3, 5] of 0.0310 and a Fluorescence anisotropy [3, 6] of 0.1217.

— paper PMC8116058, “De novo macrocyclic peptides dissect energy coupling of a heterodimeric ABC transporter by multimode allosteric inhibition” (eLife, 2021)
